Test results as given in article PMC9658984, “Acetylation Enhances the Anticancer Activity and Oral Bioavailability of 5-Demethyltangeretin” (International Journal of Molecular Sciences, 2022).
Marks after values point to notes of the source that are not given here.

Legend:
[1] = system: PC-3 cells; assay: Cell cycle distribution / sub-G1 apoptotic ratio by PI flow cytometry; format: cell-based, human; conditions: 48 h
Description: (§1) PC-3 cells were seeded in 96-well plates at a density of 2.5 × 10^3 cells/well and allowed to attach for 24 h. The medium was changed to serum-free RPMI supplemented with 0–20 μM TAN, 5-DTAN, or 5-ATAN, and then incubated for an additional 48 h. The cell viability was determined by the MTT assay and represented as a percentage of the growth of the DMSO-treated cells. FACScan flow cytometer (Becton Dickinson, San Jose, CA, USA) was used to analyze the cell cycle distribution as previously mentioned. Briefly, PC-3 cells treated with various concentrations of 5-DTAN or 5-ATAN for 48 h were trypsinized and gently fixed in 70% ice-cold ethanol and stored at −20 °C for at least 24 h. Then, the cells were washed with cold phosphate-buffered saline (PBS), followed by incubation with 40 μg/mL PI, 0.1 mg/mL RNase A, and 0.1% TritonX-100 in the dark for 30 min at room temperature. Subsequently, the cell cycle distribution of the PI-stained cells was analyzed by a FACScan flow cytometer, and the results were analyzed and calculated using ModFit LT Ver. 3.0 software. The proportion of the sub-G1 phase was quantitated and represented as the apoptotic ratio. Furthermore, a QIAamp DNA mini kit was used to extract DNA from the PC-3 cells treated with 5-DTAN or 5-ATAN for 48 h. Then, the extracted DNA was loaded on a 2% agarose gel containing HealthView^TM Nucleic Acid Stain (Genomics, New Taipei, Taiwan) for electrophoresis at 50 V. The gel was visualized under UV light, and the DNA fragmentation pattern was photographed.

[2] = system: PC-3 human prostate cancer cells; assay: MTT cell viability assay; format: cell-based; conditions: Homo sapiens; PC-3 cells, 48 h, MTT
Description: PC-3 human prostate cancer cell line was obtained from the Bioresource Collection and Research Center (Hsinchu, Taiwan) and maintained in RPMI medium with 10% FBS and 1% penicillin-streptomycin (PS). The cells were incubated in a 5% CO2 humidified atmosphere at 37 °C. TAN, 5-DTAN, and 5-ATAN were dissolved in DMSO to prepare a 20 mM sample stock, and the final ratio of the DMSO in the treatment medium was 0.1%.
as §1

[3] = design: method as in doi:10.1016/j.jff.2008.09.003; conditions: cited from earlier work
[4] = system: PC-3 cells; assay: DNA fragmentation (agarose gel electrophoresis); format: cell-based, human; conditions: 48 h
Description: as §1, with “Then, the extracted DNA was loaded on a 2% agarose gel containing HealthView^TM Nucleic Acid Stain (Genomics, New Taipei, Taiwan) for electrophoresis at 50 V. The gel was visualized under UV light, and the DNA fragmentation pattern was photographed.” left out

[5] = system: PC-3 cell xenografts; assay: Tumor growth inhibition in PC-3 cell xenograft model; format: in vivo, nude mice
Description: Male nu/nu mice were obtained from BioLasco Taiwan (Taipei, Taiwan) and maintained on a standard laboratory chow (Purina rodent chow 5001, Purina, St. Louis, MO, USA). At 5 weeks of age, nude mice were used for the xenograft experiment. For the oral bioavailability study, 5-week-old male […] mice were purchased from the National Laboratory Animal Center (Taipei, Taiwan), and the experiment was started after 1 week of acclimation. All mice were housed in an air-conditioned room (temperature: 22 ± 2 °C; humidity: 50–60%) under standard conditions (12 h light/12 h dark cycle). All animal studies were approved by the National Pingtung University of Science and Technology, Institutional Animal Care and Use Committee with protocol numbers NPUST-102-015 and NPUST-105-045.
The 5-week-old nude mice were divided into three groups (n = 6) and administered with the vehicle, 5-DTAN (10 mg/kg), and 5-ATAN (10 mg/kg), respectively. Tumors were established by subcutaneous injections of PC-3 cells (1 × 10^6 cells) into the right flank side of nude mice. The tumor size was measured twice a week with digital calipers, and the tumor volume (V) was calculated by the following formula: V = length × width^2 × 0.5. On day 24, the mice were sacrificed by CO2, and the tumors were harvested and weighed.

SMILES	Cell Cycle Distribution (%) G0/G1 ([1]; 2.5 μM)	Cell Cycle Distribution (%) G2/M ([1]; 2.5 μM)	Cell Cycle Distribution (%) S ([1]; 2.5 μM)	Cell Cycle Distribution (%) G0/G1 ([1]; 5 μM)	Cell Cycle Distribution (%) G2/M ([1]; 5 μM)	Cell Cycle Distribution (%) S ([1]; 5 μM)	Cell Cycle Distribution (%) G0/G1 ([1]; 10 μM)	Cell Cycle Distribution (%) G2/M ([1]; 10 μM)	Cell Cycle Distribution (%) S ([1]; 10 μM)	IC50 [2]	Solubility in biological systems [3]	Concentration at which DNA ladders were observed [4]	Tumor growth inhibitory rate, estimated by the means of tumor weight ([5]; 10 mg/kg daily oral, nude mice)	Tumor weight at the end of the experiment ([5]; 10 mg/kg daily oral, nude mice, day 24, control 2.47 ± 0.43 g)	Effect on tumor volume ([5]; 10 mg/kg daily, PC-3 cell xenografts in nude mice)
COc1ccc(-c2cc(=O)c3c(O)c(OC)c(OC)c(OC)c3o2)cc1 [5-DTAN, 5-hydroxy-6,7,8,4′-tetramethoxyflavone, reference compound]	60.2 ± 2.8 ^b %	31.6 ± 2.7 ^a %	8.2 ± 0.1%	59.9 ± 0.4 ^b %	31.4 ± 0.5 ^a %	8.7 ± 0.3%	58.2 ± 2.4 ^b %	32.6 ± 1.1 ^a %	8.5 ± 0.9%	11.8 µM	extremely poor solubility	20 µM	43.7%	1.39 ± 0.36 g	significantly suppressed
COc1ccc(-c2cc(=O)c3c(OC)c(OC)c(OC)c(OC)c3o2)cc1 [TAN, 5,6,7,8,4′-pentamethoxyflavone, reference compound]										17.2 µM					
